Patent publication US6511997B1, “Aminopyrazole derivatives” (Teikoku Hormone Mfg. Co., Ltd., priority 1998, dated 2003)

Row | melting point [°C] | Compound
1 | 210.2 to 211.5 | C[C@H](N)C(=O)Nc1n[nH]c(-c2ccc(F)cc2)c1-c1ccncc1.Cl
2 | 205.3 to 206.4 | CC(C)[C@H](N)C(=O)Nc1n[nH]c(-c2ccc(F)cc2)c1-c1ccncc1.Cl
3 | 289.2 to 290.4 | O=C(Cc1ccccc1)Nc1n[nH]c(-c2ccc(F)cc2)c1-c1ccncc1 [Example 1, 5-(4-fluorophenyl)-3-phenylacetylamino-4-(4-pyridyl)pyrazole]
4 | 253.5 to 255.1 | O=C(CCc1ccccc1)Nc1n[nH]c(-c2ccc(F)cc2)c1-c1ccncc1 [Example 2, 5-(4-Fluorophenyl)-3-(3-phenylpropionylamino)-4-(4-pyridyl)pyrazole]
5 | 265.1 to 266.2 | COc1ccc(CC(=O)Nc2n[nH]c(-c3ccc(F)cc3)c2-c2ccncc2)cc1 [Example 3, 5-(4-Fluorophenyl)-3-(4-methoxyphenylacetylanino)-4-(4-pyridyl)pyrazole]
6 | 240.6 to 241 | CC(C(=O)Nc1n[nH]c(-c2ccc(F)cc2)c1-c1ccncc1)c1ccccc1 (stereo not drawn) [Example 5, 5-(4-Fluorophenyl)-3-(2-phenylpropionylamino)-4-(4-pyridyl)pyrazole]
7 | 273.2 to 277.3 | O=C(Cc1ccc(Cl)cc1)Nc1n[nH]c(-c2ccc(F)cc2)c1-c1ccncc1 [Example 6, 3-(4-Chlorophenylacetylamino)-5-(4-fluorophenyl)-4-(4-pyridyl)pyrazole]
8 | 262.8 to 264.7 | Cc1ccc(CC(=O)Nc2n[nH]c(-c3ccc(F)cc3)c2-c2ccncc2)cc1 [Example 7, 5-(4-Fluorophenyl)-3-(4-methylphenylacetylamino)-4-(4-pyridyl)pyrazole]
9 | 282.1 to 288.4 | O=C(Cc1ccc(C(F)(F)F)cc1)Nc1n[nH]c(-c2ccc(F)cc2)c1-c1ccncc1 [Example 8, 5-(4-Fluorophenyl)-4-(4-pyridyl)-3-(4-trifluoromethylphenylacetylamino)pyrazole]
10 | 257.3 to 264.1 | O=C(Cc1ccccc1)Nc1n[nH]c(-c2ccccc2)c1-c1ccncc1 [Example 9, 3-Phenylacetylamino-5-phenyl-4-(4-pyridyl)pyrazole]
11 | 273.4 to 275.3 | O=C(Cc1ccccc1)Nc1n[nH]c(-c2ccc(F)cc2)c1-c1ccnc2ccccc12 [Example 10, 5-(4-Fluorophenyl)-4-(4-quinolyl)-3-phenylacetylaminopyrazole]
12 | 264.6 to 268.3 | O=C(Cc1cccs1)Nc1n[nH]c(-c2ccc(F)cc2)c1-c1ccncc1 [Example 11, 5-(4-Fluorophenyl)-4-(4-pyridyl)-3-(2-thienylacetylamino)pyrazole]
13 | 270.5 to 276.1 | O=C(Nc1n[nH]c(-c2ccc(F)cc2)c1-c1ccncc1)c1ccccc1 [Example 13, 3-Benzoylamino-5-(4-fluorophenyl)-4-(4-pyridyl)pyrazole]
14 | 264 to 266 | O=C(CO)Nc1n[nH]c(-c2ccc(F)cc2)c1-c1ccncc1 [Example 14, 5-(4-Fluorophenyl)-3-hydroxyacetylamino-4-(4-pyridyl)pyrazole]
15 | 246 to 248 | COCC(=O)Nc1n[nH]c(-c2ccc(F)cc2)c1-c1ccncc1 [Example 15, 5-(4-Fluorophenyl)-3-methoxyacetylamino-4-(4-pyridyl)pyrazole]
16 | 272 to 275 | CCC(=O)Nc1n[nH]c(-c2ccc(F)cc2)c1-c1ccncc1 [Example 17, 5-(4-Fluorophenyl)-3-propionylamino-4-(4-pyridyl)pyrazole]
17 | 291.1 to 294 | CC(C)C(=O)Nc1n[nH]c(-c2ccc(F)cc2)c1-c1ccncc1 [Example 18, 5-(4-Fluorophenyl)-3-isobutyrylamino-4-(4-pyridyl)pyrazole]
18 | 291.1 to 294 | CC(C)CC(=O)Nc1n[nH]c(-c2ccc(F)cc2)c1-c1ccncc1 [Example 19, 5-(4-Fluorophenyl)-3-isovalerylamino-4-(4-pyridyl)pyrazole]
